From US4386103A, “Dichloroamino acid derivatives useful as potent germicidal and fungicidal agents” (Merck & Co., Inc., priority 1981, dated 1983)

Experiment: Stability in Triacetin (preliminary formulation studies)
Format: physicochemical
Conditions: 60° C., two months
Text: Triacetin is the triacetate of glycerin; it is a viscous liquid with high water solubility and very low toxicity. […] Of course other aprotic polar solvents can be used as well.

- decomposition in esters of polyalcohols such as Triacetin: no decomposition
SMILES: CC(C)(COC(=O)CCC(=O)O)N(Cl)Cl [(IV), 2-Dichloroamino-2-methylpropylhemisuccinate]
